For assay [1], the system named is SKBR3 (PI3Kα wild type) cells. The assay can be described thus: CellTiter-Glo 2.0 luminescent cell viability assay, 72 hours, SKBR3 cells. The class given is cell-based. The conditions noted are these: Homo sapiens, SK-BR-3, 72 h, SKBR3 (PI3Kα wild type) cells, CellTiter-Glo, approximately 72 hours; read-out: SKBR3 (WT) Viability IC50. In a few lines:
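Viability measured via CTG luminescence following roughly 72 hours of compound exposure at 37° C. Dosing used a 10 um starting concentration diluted 1:4 over 10 points; percent-of-vehicle data fitted with a variable-slope four-parameter model for IC50.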
(In ATP-based viability assays light output follows the ATP content of the culture.)

Assay [2] deals with T47D (PI3Kα H1047R mutant) cells. The assay can be described thus: CellTiter-Glo 2.0 luminescent cell viability assay, 72 hours, T47D cells. The class given is cell-based. The conditions noted are these: Homo sapiens, T47D, 72 h, T47D (PI3Kα H1047R mutant) cells, CellTiter-Glo, approximately 72 hours; read-out: T47D (H1047R mutant) Viability IC50. The procedure, abridged:
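Cells seeded at 1000 per well overnight were dosed with a 10-concentration, 1:4 series starting at 10 µM and incubated ~72 h at 37° C. Viability was read by CellTiter-Glo 2.0 luminescence after 30 min at room temperature. IC50 came from four-parameter fits of percent vehicle control.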

Drawing on US20260078120A1, “SUBSTITUTED PYRIDOPYRIMIDINONES” (MIRATI THERAPEUTICS, INC., priority 2022, published 2026), this text covers IC50 for 14 compounds.

Usually IC50 stands for the concentration that gives 50% inhibition. As to `Cc1cc([C@@H](C)Nc2ccccc2C(=O)O)c2nc(N3CCn4cc(C(F)(F)F)nc4C3)c(C)c(=O)n2c1` [Example 11-433, (R)-2-((1-(3,7-dimethyl-4-oxo-2-(2-(trifluoromethyl)-5,6-dihydroimidazo[1,2-a]pyrazin-7(8H)-yl)-4H-pyrido[1,2-a]pyrimidin-9-yl)ethyl)amino)benzoic acid], the results for the IC50 in assay [1] and in assay [2] were over 10000 nM and 3010 nM, respectively.
For `Cc1cc([C@@H](C)Nc2ccccc2C(=O)O)c2nc(N3CCN(c4ccc(C(F)(F)F)cn4)CC3)c(C)c(=O)n2c1` [Example 11-434, (R)-2-((1-(3,7-dimethyl-4-oxo-2-(4-(5-(trifluoromethyl)pyridin-2-yl)piperazin-1-yl)-4H-pyrido[1,2-a]pyrimidin-9-yl)ethyl)amino)benzoic acid], in that order: 8310 nM and 138 nM.
Turning to `Cc1cc([C@@H](C)Nc2ccccc2C(=O)O)c2nc(N3CCN(c4nc5cc(C(F)(F)F)ccc5s4)CC3)c(C)c(=O)n2c1` [Example 11-435, (R)-2-((1-(3,7-dimethyl-4-oxo-2-(4-(5-(trifluoromethyl)benzo[d]thiazol-2-yl)piperazin-1-yl)-4H-pyrido[1,2-a]pyrimidin-9-yl)ethyl)amino)benzoic acid], the values for the concentration for half-maximal inhibition (IC50) in assay [1] and in assay [2] were over 10000 nM and 356 nM, respectively.
For `Cc1cc([C@@H](C)Nc2ccccc2C(=O)O)c2nc(N3CCC4(C3)CC(F)(F)C4(F)F)c(C)c(=O)n2c1` (stereo partly drawn) [Example 11-436, 2-(((1R)-1-(3,7-dimethyl-4-oxo-2-(1,1,2,2-tetrafluoro-6-azaspiro[3.4]octan-6-yl)-4H-pyrido[1,2-a]pyrimidin-9-yl)ethyl)amino)benzoic acid] the same measures were over 10000 nM and 641 nM.
For `Cc1cc([C@@H](C)Nc2ccccc2C(=O)O)c2nc(N3CCN(c4cccc(C#N)c4C)CC3)c(C)c(=O)n2c1` [Example 11-438, (R)-2-((1-(2-(4-(3-cyano-2-methylphenyl)piperazin-1-yl)-3,7-dimethyl-4-oxo-4H-pyrido[1,2-a]pyrimidin-9-yl)ethyl)amino)benzoic acid] the same measures were over 10000 nM and 188 nM.
For `Cc1cc([C@@H](C)Nc2ccccc2C(=O)O)c2nc(N3CCN(c4cccc(C(F)(F)F)c4)CC3)c(C)c(=O)n2c1` [Example 11-439, (R)-2-((1-(3,7-dimethyl-4-oxo-2-(4-(3-(trifluoromethyl)phenyl)piperazin-1-yl)-4H-pyrido[1,2-a]pyrimidin-9-yl)ethyl)amino)benzoic acid], in that order: over 10000 nM and 241 nM.
Take `Cc1cc([C@@H](C)Nc2ccccc2C(=O)O)c2nc(N3CCN(c4ccccc4F)CC3)c(C)c(=O)n2c1` [Example 11-440, (R)-2-((1-(2-(4-(2-fluorophenyl)piperazin-1-yl)-3,7-dimethyl-4-oxo-4H-pyrido[1,2-a]pyrimidin-9-yl)ethyl)amino)benzoic acid]: the half-maximal inhibitory concentration (IC50) was over 10000 nM in assay [1] and 252 nM in assay [2].
For `Cc1cc([C@@H](C)Nc2ccccc2C(=O)O)c2nc(N3CCN(c4ccncc4)CC3)c(C)c(=O)n2c1` [Example 11-441, (R)-2-((1-(3,7-dimethyl-4-oxo-2-(4-(pyridin-4-yl)piperazin-1-yl)-4H-pyrido[1,2-a]pyrimidin-9-yl)ethyl)amino)benzoic acid] the same measures were over 10000 nM and 408 nM.
For `Cc1cc([C@@H](C)Nc2ccccc2C(=O)O)c2nc(N3CC(c4cc(C(F)(F)F)on4)C3)c(C)c(=O)n2c1` [Example 11-442, (R)-2-((1-(3,7-dimethyl-4-oxo-2-(3-(5-(trifluoromethyl)isoxazol-3-yl)azetidin-1-yl)-4H-pyrido[1,2-a]pyrimidin-9-yl)ethyl)amino)benzoic acid], in that order: over 10000 nM and 871 nM.
For `Cc1cc([C@@H](C)Nc2ccccc2C(=O)O)c2nc(N3C[C@H]4C[C@@H]3CN4CC(F)F)c(C)c(=O)n2c1` [Example 11-443, 2-(((R)-1-(2-((1R,4R)-5-(2,2-difluoroethyl)-2,5-diazabicyclo[2.2.1]heptan-2-yl)-3,7-dimethyl-4-oxo-4H-pyrido[1,2-a]pyrimidin-9-yl)ethyl)amino)benzoic acid] the same measures were over 10000 nM and 130 nM.
Regarding `Cc1cc([C@@H](C)Nc2ccccc2C(=O)O)c2nc(N3CC4CC(F)(F)CC4C3)c(C)c(=O)n2c1` (stereo partly drawn) [Example 11-444, 2-(((1R)-1-(2-(5,5-difluorohexahydrocyclopenta[c]pyrrol-2(1H)-yl)-3,7-dimethyl-4-oxo-4H-pyrido[1,2-a]pyrimidin-9-yl)ethyl)amino)benzoic acid], the concentration for half-maximal inhibition (IC50) is over 10000 nM in assay [1] and 234 nM in assay [2].
For `Cc1cc([C@@H](C)Nc2ccccc2C(=O)O)c2nc(N3C[C@@H]4[C@H](C3)[C@H]4C(F)(F)F)c(C)c(=O)n2c1` [Example 11-445, 2-(((R)-1-(3,7-dimethyl-4-oxo-2-((1R,5S,6R)-6-(trifluoromethyl)-3-azabicyclo[3.1.0]hexan-3-yl)-4H-pyrido[1,2-a]pyrimidin-9-yl)ethyl)amino)benzoic acid] the same measures were over 10000 nM and 287 nM.
For `Cc1cc([C@@H](C)Nc2ccccc2C(=O)O)c2nc(N3CCN(c4nc(C)cs4)CC3)c(C)c(=O)n2c1` [Example 11-446, (R)-2-((1-(3,7-dimethyl-2-(4-(4-methylthiazol-2-yl)piperazin-1-yl)-4-oxo-4H-pyrido[1,2-a]pyrimidin-9-yl)ethyl)amino)benzoic acid], in that order: over 10000 nM and 300 nM.
For `Cc1cc([C@@H](C)Nc2ccccc2C(=O)O)c2nc(N3CCC4(CCC(F)(F)C4)C3)c(C)c(=O)n2c1` (stereo partly drawn) [Example 11-447, 2-(((1R)-1-(2-(7,7-difluoro-2-azaspiro[4.4]nonan-2-yl)-3,7-dimethyl-4-oxo-4H-pyrido[1,2-a]pyrimidin-9-yl)ethyl)amino)benzoic acid] the same measures were over 10000 nM and 645 nM.
